Each structure is given as a SMILES string.

The target of one assay is c-Myc template DNA (c-myc quadruplex). As to the kind of experiment: Quadruplex binding / stop assay (Taq polymerase arrest, capillary electrophoresis). Conditions: read-out: S DATA; Table 1D, stop assay data.
For the molecule `CN1CCCC1CCNC(=O)c1cn2c3c(c(NCCCCCCO)c(F)cc3c1=O)Oc1cc3ccccc3cc1-2` (stereo not shown) [compound 1675], the IC50 was more than 15 µM. The same measure, in the same setting: with `CN1CCN(CCCNC(=O)c2cn3c4c(c(N5CC6CCCNC6C5)c(F)cc4c2=O)Oc2cc4ccccc4cc2-3)CC1` (stereo not shown) [compound 1641] the figure was 0.75 µM; with `O=c1c2cn3c4ccccc4oc4c(N5CCC(c6cnccn6)C5)c(F)cc(c2nn1CCN1CCCC1)c43` (stereo not shown) [compound 1772], 14.1 µM; with `CN1CCCC1CCNC(=O)c1cn2c3c(c(N4CCC(N5CCCC5)CC4)c(F)cc3c1=O)Oc1cc3ccccc3cc1-2` (stereo not shown) [compound 1492], 0.75 µM. The same measure, in the same setting: with `CN1CCN(CCCNc2c(F)cc3c(=O)c(C(=O)N4CCC(NC(=O)OC(C)(C)C)C4)cn4c3c2Oc2ccccc2-4)CC1` (stereo not shown) [compound 1575] the figure was more than 15 µM.

Take `N=C(N)NCC1CCCC(CNC(=O)c2cn3c4c(c(NCCCN5CCOCC5)c(F)cc4c2=O)Oc2cc4ccccc4cc2-3)C1` (stereo not shown) [compound 1651]: the IC50 came out at 1 µM. `O=C(NCCN1CCCC1)c1cn2c3c(c(N4CCC(c5cnccn5)C4)c(F)cc3c1=O)Oc1cc3ccccc3cc1-2` (stereo not shown) [compound 1664]: the IC50 worked out at 1.12 µM. Still for that read-out and setting: with `CN1CCCC1CCNC(=O)c1cn2c3c(c(N4CCC(C#N)(c5ccccc5)CC4)c(F)cc3c1=O)Oc1cc3ccccc3cc1-2` (stereo not shown) [compound 1491] the figure was 1.75 µM.

Regarding `CC(C)N1CCN(c2c(F)cc3c(=O)c(C(=O)NCCCN4CCOCC4)cn4c3c2Oc2ccccc2-4)CC1` [compound 1561], the IC50 is more than 15 µM. For `CC1(C)CC(NC(=O)c2cn3c4c(c(NCCN5CCCC5)c(F)cc4c2=O)Oc2ccccc2-3)CC(C)(C)N1` [compound 1603], the IC50 was more than 15 µM.

With `CC1CCN(CCCNc2c(F)cc3c(=O)c(C(=O)NCCC4CCCN4C)cn4c3c2Oc2cc3ccccc3cc2-4)CC1` (stereo not shown) [compound 1501], the IC50 amounted to 0.75 µM. The same measure, in the same setting: the result for `NC1CCN(C(=O)c2cn3c4c(c(NCCN5CCOCC5)c(F)cc4c2=O)Oc2ccccc2-3)C1` (stereo not shown) [compound 1630] reads more than 15 µM; that for `O=C(NCCN1CCOCC1)c1cn2c3c(c(SCCc4cnccn4)c(F)cc3c1=O)Oc1cc(Cl)ccc1-2` [compound 1788], more than 15 µM; that for `CN(C)CC(C)(C)CNC(=O)c1cn2c3c(c(N4CCC(NC(=O)OC(C)(C)C)C4)c(F)cc3c1=O)Oc1ccccc1-2` (stereo not shown) [compound 1590], more than 15 µM. Regarding `CC(C)(C)OC(=O)NC1CCN(c2c(F)cc3c(=O)c(C(=O)NCCCCNC(=N)N)cn4c3c2Oc2ccccc2-4)C1` (stereo not shown) [compound 1632], the IC50 was more than 15 µM. Still for that read-out and setting: the result for `O=C(NCCN1CCCC1)c1cn2c3c(c(SCCc4cnccn4)c(F)cc3c1=O)Oc1ccccc1-2` [compound 1785] reads more than 15 µM; that for `CC1(C)CC(NC(=O)c2cn3c4c(c(N5CCC(N)C5)c(F)cc4c2=O)Oc2ccccc2-3)CC(C)(C)N1` (stereo not shown) [compound 1626], more than 15 µM. On the same count and under the same terms, the result for `CN1CCN(c2c(F)cc3c(=O)c(C(=O)NCCN4CCCC4)cn4c3c2Oc2cc(Cl)ccc2-4)CC1` [compound 1817] reads 10 µM; that for `CC(CNc1c(F)cc2c(=O)c(C(=O)NCCC3CCCN3C)cn3c2c1Oc1cc2ccccc2cc1-3)c1ccccc1` (stereo not shown) [compound 1662], 1.75 µM; that for `CC(O)CNc1c(F)cc2c(=O)c(C(=O)NCCC3CCCN3C)cn3c2c1Oc1cc2ccccc2cc1-3` (stereo not shown) [compound 1656], 1.75 µM. Same read-out and setting: the result for `CN1CCCC1CCNC(=O)c1cn2c3c(c(/N=C4\CCCCN4)c(F)cc3c1=O)Oc1cc3ccccc3cc1-2` (stereo not shown) [compound 1482] reads 1.75 µM; that for `CC(C)N1CCN(c2c(F)cc3c(=O)c(C(=O)NCCC4CCCN4C)cn4c3c2Oc2ccccc2-4)CC1` (stereo not shown) [compound 1565], more than 15 µM.

The assay is the same for the next values; noted with them: read-out: Stop Data c-Myc μM; concentration at which 50% of the DNA was arrested (arrested:full-length 1:1).
Take `CC(C)(C)OC(=O)N[C@@H]1CCN(c2c(F)cc3c(=O)c(C(=O)NCCN4CCCC4)cn4c3c2Oc2c-4ccc3ccccc23)C1` [compound 133]: the IC50 was found to be 1.75 µM.

As to `Nc1c(F)c(N2CCC(N)C2)c2c3c1c(=O)c(C(=O)NCCN1CCCC1)cn3-c1cc3ccccc3cc1O2` (stereo not shown) [compound 233], the IC50 is 1.75 µM. Still for that read-out and setting: with `CN(C)/C=N/CCCNC(=O)c1cn2c3c(c(N4CC[C@@H](NC(=O)OC(C)(C)C)C4)c(F)cc3c1=O)Oc1cc3ccccc3cc1-2` [compound 211] the figure was 1.75 µM. Same read-out and setting: the result for `CC(C)(C)OC(=O)N[C@@H]1CCN(c2c(F)cc3c(=O)c(C(=O)NCCCCN=C(N)N)cn4c3c2Oc2cc3ccccc3cc2-4)C1` [compound 322] reads 1 µM; that for `CCOC(=O)N1CCC(Nc2c(F)cc3c(=O)c(C(=O)NCCC4CCCN4C)cn4c3c2Oc2cc3ccccc3cc2-4)CC1` (stereo not shown) [compound 256], 1.75 µM; that for `CC1CCCCN1CCCNC(=O)c1cn2c3c(c(N4CCC(NC(=O)OC(C)(C)C)C4)c(F)cc3c1=O)Oc1cc3ccccc3cc1-2` (stereo not shown) [compound 185], 1.75 µM. The same measure, in the same setting: the result for `CN1CCN(CCCNCCC(=O)N[C@@H]2CCN(c3c(F)cc4c(=O)c(C(=O)NCCN5CCCC5)cn5c4c3Oc3cc4c(cc3-5)oc3ccccc34)C2)CC1` [compound 403] reads 0.75 µM. For the molecule `O=C(Nc1nc2ccccc2s1)c1cn2c3c(c(NCCN4CCCC4)c(F)cc3c1=O)Oc1ccccc1-2` [compound 118], the IC50 worked out at 1.75 µM. The same measure, in the same setting: with `CC(=O)N[C@@H]1CCN(c2c(F)cc3c(=O)c(C(=O)NCCCN4CCOCC4)cn4c3c2Oc2cc3c(cc2-4)oc2ccccc23)C1` [compound 178] the figure was 1.75 µM; with `Nc1c(F)c(N2CCC(N)C2)c2c3c1c(=O)c(C(=O)N1CCC(N)C1)cn3-c1cc3ccccc3cc1O2` (stereo not shown) [compound 236], 1.75 µM; with `CN1CCCC1CCNc1c(F)cc2c(=O)c(C(=O)NCCN3CCOCC3)cn3c2c1Oc1cc2ccccc2cc1-3` (stereo not shown) [compound 67], 2.5 µM. Same read-out and setting: the result for `Nc1c(F)c(N2CCC(N)C2)c2c3c1c(=O)c(C(=O)NCCCN1CCOCC1)cn3-c1cc3ccccc3cc1O2` (stereo not shown) [compound 235] reads 1.75 µM; that for `NC1CCN(c2c(F)cc3c(=O)c(C(=O)NCCCN4CCOCC4)cn4c5cc6c(=O)c7ccccc7c(=O)c6cc5oc2c34)C1` (stereo not shown) [compound 551], 0.375 µM; that for `CN1CCCC1CCNC(=O)c1cn2c3c(c(NCC4CCNC4)c(F)cc3c1=O)Oc1cc3ccccc3cc1-2` (stereo not shown) [compound 559], 0.375 µM. In the case of `CN1CCN(CCCNC(=O)c2cn3c4c(c(N5CC[C@@H](NC(=O)OC(C)(C)C)C5)c(F)cc4c2=O)Oc2cc4ccccc4cc2-3)CC1` [compound 64], the IC50 was determined as 2.5 µM.

As to `CN(C)CCCCNc1c(F)cc2c(=O)c(C(=O)O)cn3c4cc5oc6cc([N+](=O)[O-])ccc6[nH]c5cc4oc1c23` [compound 19], the IC50 was 0.75 µM. On the same count and under the same terms, the result for `CN1CCN(c2c(F)cc3c(=O)c(C(=O)NCCC4CCCN4C)cn4c5cc6c(=O)c7ccccc7c(=O)c6cc5oc2c34)CC1` (stereo not shown) [compound 351] reads 0.9 µM; that for `CN1CCCC1CCNC(=O)c1cn2c3c(c(NCCN4CCCCC4)c(F)cc3c1=O)Oc1cc3ccccc3cc1-2` (stereo not shown) [compound 432], 0.75 µM; that for `O=C(O)c1cn2c3cc4oc5cc([N+](=O)[O-])ccc5[nH]c4cc3oc3c(NCCCN4CCOCC4)c(F)cc(c1=O)c32` [compound 18], 0.75 µM. Same read-out and setting: the result for `CN1CCN(CCCNC(=O)c2cn3c4cc5c(=O)c6ccccc6c(=O)c5cc4oc4c(N5CCN(C)CC5)c(F)cc(c2=O)c43)CC1` [compound 352] reads 0.9 µM; that for `N[C@H]1CCN(C(=O)c2cn3c4cc5c(cc4oc4c(NCCN6CCCC6)c(F)cc(c2=O)c43)c(=O)c2ccccc25)C1` [compound 214], 1.75 µM. Same read-out and setting: the result for `CN1CCCC1CCNC(=O)c1cn2c3c(c(N4CC[C@@H](NC(=O)CCN5CCOCC5)C4)c(F)cc3c1=O)Oc1cc3c(cc1-2)oc1ccccc13` (stereo partly shown) [compound 402] reads 0.75 µM; that for `CN1CCN(C(=O)c2cn3c4c(c(N5CC[C@@H](N)C5)c(F)cc4c2=O)Oc2c-3ccc3ccccc23)CC1` [compound 81], 2.5 µM. As for `CN1CCCC1CCNC(=O)c1cn2c3c(c(NCCC4CCCN4C)c(F)cc3c1=O)Oc1c-2ccc2ccccc12` (stereo not shown) [compound 525], the IC50 was 0.375 µM. The same measure, in the same setting: with `CN1CCCC1CCNC(=O)c1cn2c3c(c(N4CC[C@@H](NC(=O)OC(C)(C)C)C4)c(F)cc3c1=O)Oc1cc3ccccc3cc1-2` (stereo partly shown) [compound 120] the figure was 1.75 µM; with `CN(C)CCCCNC(=O)c1cn2c3cc4c(cc3oc3c(NCCN5CCOCC5)c(F)cc(c1=O)c32)c(=O)c1ccccc14` [compound 490], 0.5 µM.

Turning to `CN1CCN(CCCNC(=O)c2cn3c4c(c(NCCN5CCOCC5)c(F)cc4c2=O)Oc2c-3ccc3ccccc23)CC1` [compound 130], the IC50 amounted to 1.75 µM. Regarding `CN(C)CCN(Cc1ccccc1)C(=O)c1cn2c3c(c(N4CCC(N)C4)c(F)cc3c1=O)Oc1cc3ccccc3cc1-2` (stereo not shown) [compound 194], the IC50 was determined as 1.75 µM.

As to `O=C(c1cn2c3c(c(NCCCNC4CCCCC4)c(F)cc3c1=O)Oc1cc3ccccc3cc1-2)N1CCOCC1` [compound 117], the IC50 is 1.75 µM. On the same count and under the same terms, the result for `CN(C)CCCCNc1c(F)cc2c(=O)c(C(=O)Nc3ccc(N(C)C)cc3)cn3c2c1Oc1c-3ccc2ccccc12` [compound 76] reads 2.5 µM; that for `CN1CCCC1CCNC(=O)c1cn2c3c(c(NC4CCS(=O)(=O)C4)c(F)cc3c1=O)Oc1cc3ccccc3cc1-2` (stereo not shown) [compound 338], 1 µM.

Consider `NCCCNC(=O)c1cn2c3c(c(N4CCC(N)C4)c(F)cc3c1=O)Oc1cc3ccccc3cc1-2` (stereo not shown) [compound 466], for which the IC50 worked out at 0.75 µM.

Regarding `Nc1c(F)c(NCCCN2CCOCC2)c2c3c1c(=O)c(C(=O)N1CCC(N)C1)cn3-c1cc3ccccc3cc1O2` (stereo not shown) [compound 232], the IC50 was determined as 1.75 µM. As for `CCN1CCCC1CNc1c(F)cc2c(=O)c(C(=O)N3CCOCC3)cn3c2c1Oc1cc2ccccc2cc1-3` (stereo not shown) [compound 42], the IC50 is 2.5 µM. Same read-out and setting: with `CN1CCN(CCCNc2c(F)cc3c(=O)c(C(=O)N4CCC(N)C4)cn4c5cc6c(=O)c7ccccc7c(=O)c6cc5oc2c34)CC1` (stereo not shown) [compound 95] the figure was 2.5 µM; with `CN1CCCC1CCNC(=O)c1cn2c3c(c(NCC4CCN(C(=O)OC(C)(C)C)C4)c(F)cc3c1=O)Oc1cc3ccccc3cc1-2` (stereo not shown) [compound 441], 0.75 µM.

Values taken from patent publication US7507727B2, “Substituted quinobenzoxazine analogs and methods of using thereof” (Cylene Pharmaceuticals, Inc., priority 2003, dated 2009).
